Assay results from patent publication US11691986B2, “PTEFB inhibiting macrocyclic compounds” (Bayer Aktiengesellschaft, priority 2017, dated 2023).

Experiments:
[1] = test system: Caco-2 cells; assay: Proliferation assay, Caco-2 (crystal violet); assay type: cell-based; conditions: Homo sapiens, 96 h; Caco-2, 4 days; read-out: Inhibition of Caco-2 cell proliferation IC50
Protocol: (§1) Cultivated tumour cells (HeLa, human cervical tumour cells, ATCC CCL-2; NCI-H460, human non-small cell lung carcinoma cells, ATCC HTB-177; DU 145, hormone-independent human prostate carcinoma cells, ATCC HTB-81; HeLa-MaTu-ADR, multidrug-resistant human cervical carcinoma cells, EPO-GmbH Berlin; Caco-2, human colorectal carcinoma cells, ATCC HTB-37; B16F10, mouse melanoma cells, ATCC CRL-6475) were plated at a density of 5,000 cells/well (DU145, HeLa-MaTu-ADR), 3,000 cells/well (NCI-H460, HeLa), 1,500 cells/well (Caco-2), or 1,000 cells/well (B16F10) in a 96-well multititer plate in 200 μL of their respective growth medium supplemented 10% fetal calf serum. After 24 hours, the cells of one plate (zero-point plate) were stained with crystal violet (see below), while the medium of the other plates was supplemented with the test substances in various concentrations (0 μM, as well as in the range of 0.0001-10 μM; the final concentration of the solvent dimethyl sulfoxide was adjusted to 0.1%) using a Hewlett-Packard HP D300 Digital Dispenser. The cells were incubated for 4 days in the presence of test substances. Cell proliferation was determined by staining the cells with crystal violet: the cells were fixed by adding 20 μl/measuring point of an 11% glutaric aldehyde solution for 15 minutes at room temperature. After three washing cycles of the fixed cells with water, the plates were dried at room temperature. The cells were stained by adding 100 μl/measuring point of a 0.1% crystal violet solution (pH 3.0). After three washing cycles of the stained cells with water, the plates were dried at room temperature. The dye was dissolved by adding 100 μl/measuring point of a 10% acetic acid solution. The extinction was determined by photometry at a wavelength of 595 nm. The change of cell number, in percent, was calculated by normalization of the measured values to the extinction values of the zero-point plate (=0%) and the extinction of the untreated (0 Wm) cells (=100%). The IC50 values (inhibitory concentration at 50% of maximal effect) were determined by means of a 4 parameter fit.

[2] = test system: HeLa-MaTu-ADR cells; assay: Proliferation assay, HeLa-MaTu-ADR (crystal violet); assay type: cell-based; conditions: Homo sapiens, 96 h, 4 days, read-out: Inhibition of HeLa-MaTu-ADR cell proliferation IC50
Protocol: as §1

[3] = target: T1, CDK9/CycT1 (Homo sapiens, UniProt P50750); assay: CDK9/CycT1 high ATP kinase assay (TR-FRET); assay type: biochemical; conditions: 2 mM ATP; for IC50: Method 1b; for Selectivity high ATP CDK9 over high ATP CDK2: IC50 (high ATP CDK2)/IC50 (high ATP CDK9): minimal values where CDK9 IC50 is at the assay limit of about 1-2 nM
T1 construct: Recombinant full-length His-tagged human CDK9 and CycT1; His; purchased Life Technologies PV4131; host or cells: insect cells
Protocol: 1b. CDK9/CycT1 High ATP Kinase Assay
CDK9/CycT1-inhibitory activity of compounds of the present invention at a high ATP concentration after preincubation of enzyme and test compounds was quantified employing the CDK9/CycT1 TR-FRET assay as described in the following paragraphs.
Recombinant full-length His-tagged human CDK9 and CycT1, expressed in insect cells and purified by Ni-NTA affinity chromatography, were purchased from Life Technologies (Cat. No PV4131). As substrate for the kinase reaction biotinylated peptide biotin-Ttds-YISPLKSPYKISEG (C-terminus in amide form) was used which can be purchased e.g. form the company JERINI peptide technologies (Berlin, Germany).
For the assay 50 nl of a 100 fold concentrated solution of the test compound in DMSO was pipetted into either a black low volume 384 well microtiter plate or a black 1536 well microtiter plate (both Greiner Bio-One, Frickenhausen, Germany), 2 μl of a solution of CDK9/CycT1 in aqueous assay buffer [50 mM Tris/HCl pH 8.0, 10 mM MgCl2, 1.0 mM dithiothreitol, 0.1 mM sodium ortho-vanadate, 0.01% (v/v) Nonidet-P40 (Sigma)] were added and the mixture was incubated for 15 min at 22° C. to allow pre-binding of the test compounds to the enzyme before the start of the kinase reaction. […] The concentration of CDK9/CycT1 was adjusted depending of the activity of the enzyme lot and was chosen appropriate to have the assay in the linear range, typical concentrations were in the range of 0.5 μg/ml. The reaction was stopped by the addition of 3 μl of a solution of TR-FRET detection reagents (0.33 μM streptavidine-XL665 [Cisbio Bioassays, Codolet, France] and 1.67 nM anti-RB(pSer807/pSer811)-antibody from BD Pharmingen [#558389] and 2 nM LANCE EU-W1024 labeled anti-mouse IgG antibody [Perkin-Elmer, product no. AD0077]) in an aqueous EDTA-solution (167 mM EDTA, 0.2% (w/v) bovine serum albumin in 100 mM HEPES pH 7.5).
The resulting mixture was incubated 1 h at 22° C. to allow the formation of complex between the phosphorylated biotinylated peptide and the detection reagents. Subsequently the amount of phosphorylated substrate was evaluated by measurement of the resonance energy transfer from the Eu-chelate to the streptavidine-XL. Therefore, the fluorescence emissions at 620 nm and 665 nm after excitation at 350 nm was measured in a TR-FRET reader, e.g. a Pherastar (BMG Labtechnologies, Offenburg, Germany) or a Viewlux (Perkin-Elmer). The ratio of the emissions at 665 nm and at […] was taken as the measure for the amount of phosphorylated substrate. The data were normalised (enzyme reaction without inhibitor=0% inhibition, all other assay components but no enzyme=100% inhibition).

[4] = test system: HeLa cells; assay: Proliferation assay, HeLa (crystal violet); assay type: cell-based; conditions: Homo sapiens, 96 h, 4 days, read-out: Inhibition of HeLa cell proliferation IC50
Protocol: as §1

T1 sequence (P50750 whole entry): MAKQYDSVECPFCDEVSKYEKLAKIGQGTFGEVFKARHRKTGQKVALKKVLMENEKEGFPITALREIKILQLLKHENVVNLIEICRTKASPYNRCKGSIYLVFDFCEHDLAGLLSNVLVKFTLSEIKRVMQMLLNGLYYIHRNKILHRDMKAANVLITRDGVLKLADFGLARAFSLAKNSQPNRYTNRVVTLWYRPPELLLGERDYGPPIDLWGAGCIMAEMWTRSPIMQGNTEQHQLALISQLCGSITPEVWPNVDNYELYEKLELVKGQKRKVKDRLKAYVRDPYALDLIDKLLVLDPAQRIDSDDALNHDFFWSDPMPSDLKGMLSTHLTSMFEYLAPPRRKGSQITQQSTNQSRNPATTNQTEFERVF
T1 sequence (O60563 whole entry partner): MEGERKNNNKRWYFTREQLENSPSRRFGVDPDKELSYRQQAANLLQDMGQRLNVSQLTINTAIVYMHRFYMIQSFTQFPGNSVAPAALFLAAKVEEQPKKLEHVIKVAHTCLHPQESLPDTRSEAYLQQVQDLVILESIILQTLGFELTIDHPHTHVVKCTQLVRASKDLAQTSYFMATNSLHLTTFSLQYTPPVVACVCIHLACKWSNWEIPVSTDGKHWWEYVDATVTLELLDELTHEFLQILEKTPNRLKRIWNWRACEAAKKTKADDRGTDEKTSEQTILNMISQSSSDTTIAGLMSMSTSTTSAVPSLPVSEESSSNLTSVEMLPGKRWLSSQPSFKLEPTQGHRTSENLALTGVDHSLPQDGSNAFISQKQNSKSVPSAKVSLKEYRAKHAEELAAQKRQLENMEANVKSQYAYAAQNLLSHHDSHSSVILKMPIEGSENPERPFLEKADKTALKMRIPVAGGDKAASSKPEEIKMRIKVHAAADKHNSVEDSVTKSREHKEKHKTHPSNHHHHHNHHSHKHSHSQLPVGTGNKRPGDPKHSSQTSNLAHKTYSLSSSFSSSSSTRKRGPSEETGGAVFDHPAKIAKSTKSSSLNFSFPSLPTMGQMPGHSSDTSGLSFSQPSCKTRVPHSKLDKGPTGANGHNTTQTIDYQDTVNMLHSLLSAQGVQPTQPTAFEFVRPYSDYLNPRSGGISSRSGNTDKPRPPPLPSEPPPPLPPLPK

Structure (SMILES)	IC50 [1]	IC50 [2]	IC50 [3]	Selectivity high ATP CDK9 over high ATP CDK2: IC50 (high ATP CDK2)/IC50 (high ATP CDK9) [3]	IC50 [4]
CC(C)(C)OC(=O)N=S(C)(=O)Cc1cc2cc(c1)OCCCCNc1cc(ccc1F)-c1nc(ncc1F)N2 (racemic) [Example 1, (rac)-tert-butyl [{[3,20-difluoro-13-oxa-5,7,18,25-tetraazatetracyclo[17.3.1.1^2,6.1^8,12]pentacosa-1(23),2(25),3,5,8(24),9,11,19,21-nonaen-10-yl]methyl}(methyl)oxido-λ^6-sulfanylidene]carbamate]	70 nM	46 nM	3.4 nM	249	40 nM
CS(=N)(=O)Cc1cc2cc(c1)OCCCCNc1cc(ccc1F)-c1nc(ncc1F)N2 (racemic) [Example 2, (rac)-3,20-difluoro-10-[(S-methylsulfonimidoyl)methyl]-13-oxa-5,7,18,25-tetraazatetracyclo[17.3.1.1^2,6.1^8,12]pentacosa-1(23),2(25),3,5,8(24),9,11,19,21-nonaene]	8.4 nM	5.3 nM	1.8 nM	87	4.4 nM
CS(=N)(=O)Cc1cc2cc(c1)OCCCNc1cc(ccc1F)-c1nc(ncc1F)N2 (racemic) [Example 3, (rac)-3,19-difluoro-10-[(S-methylsulfonimidoyl)methyl]-13-oxa-5,7,17,24-tetraazatetracyclo[16.3.1.1^2,6.1^8,12]tetracosa-1(22),2(24),3,5,8(23),9,11,18,20-nonaene]	20 nM	23 nM	1.8 nM	460	15 nM
CC1CCCNc2cc(ccc2F)-c2nc(ncc2F)Nc2cc(CS(C)(=O)=O)cc(c2)O1 (racemic) [Example 8, (rac)-3,20-difluoro-14-methyl-10-[(methylsulfonyl)methyl]-13-oxa-5,7,18,25-tetraazatetracyclo[17.3.1.1^2,6.1^8,12]pentacosa-1(23),2(25),3,5,8(24),9,11,19,21-nonaene]	–	–	0.8 nM	606	–
